Experimental data: patent publication US12303509B2, “Compounds for the treatment of BRAF-associated diseases and disorders” (Pfizer Inc., priority 2020, dated 2025)

Tests used:
BCRP = BCRP (Homo sapiens (Human), UniProt Q9UNQ0); assay: BCRP MDCKII permeability assay: efflux ratio; assay type: in vitro ADME; settings: dog
A375 cells = assay: Cellular phospho-ERK inhibition assay in A375 cells; assay type: cell-based; settings: Homo sapiens, A-375, A375 cells (head prints A357), 2 hours treatment, read-out: A357 cell IC50
In short: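 In Cell Western detection of phospho-ERK1/2 (Thr202/Tyr204) over GAPDH after 2 h compound exposure (66 pM to 10 μM, 9 points, 0.25% DMSO) of A375 cells in DMEM or H1755 cells in RPMI, both with 10% FBS. Percent of control set by DMSO and 10 μM binimetinib; 4-parameter IC50.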

P-gp (MDR1) = P-gp (MDR1) (Homo sapiens (Human), UniProt P08183); assay: MDR1 LLC-PK1 permeability assay: efflux ratio; assay type: in vitro ADME; settings: pig
P-gp (MDR1), sequence (P08183 whole entry, species assumed): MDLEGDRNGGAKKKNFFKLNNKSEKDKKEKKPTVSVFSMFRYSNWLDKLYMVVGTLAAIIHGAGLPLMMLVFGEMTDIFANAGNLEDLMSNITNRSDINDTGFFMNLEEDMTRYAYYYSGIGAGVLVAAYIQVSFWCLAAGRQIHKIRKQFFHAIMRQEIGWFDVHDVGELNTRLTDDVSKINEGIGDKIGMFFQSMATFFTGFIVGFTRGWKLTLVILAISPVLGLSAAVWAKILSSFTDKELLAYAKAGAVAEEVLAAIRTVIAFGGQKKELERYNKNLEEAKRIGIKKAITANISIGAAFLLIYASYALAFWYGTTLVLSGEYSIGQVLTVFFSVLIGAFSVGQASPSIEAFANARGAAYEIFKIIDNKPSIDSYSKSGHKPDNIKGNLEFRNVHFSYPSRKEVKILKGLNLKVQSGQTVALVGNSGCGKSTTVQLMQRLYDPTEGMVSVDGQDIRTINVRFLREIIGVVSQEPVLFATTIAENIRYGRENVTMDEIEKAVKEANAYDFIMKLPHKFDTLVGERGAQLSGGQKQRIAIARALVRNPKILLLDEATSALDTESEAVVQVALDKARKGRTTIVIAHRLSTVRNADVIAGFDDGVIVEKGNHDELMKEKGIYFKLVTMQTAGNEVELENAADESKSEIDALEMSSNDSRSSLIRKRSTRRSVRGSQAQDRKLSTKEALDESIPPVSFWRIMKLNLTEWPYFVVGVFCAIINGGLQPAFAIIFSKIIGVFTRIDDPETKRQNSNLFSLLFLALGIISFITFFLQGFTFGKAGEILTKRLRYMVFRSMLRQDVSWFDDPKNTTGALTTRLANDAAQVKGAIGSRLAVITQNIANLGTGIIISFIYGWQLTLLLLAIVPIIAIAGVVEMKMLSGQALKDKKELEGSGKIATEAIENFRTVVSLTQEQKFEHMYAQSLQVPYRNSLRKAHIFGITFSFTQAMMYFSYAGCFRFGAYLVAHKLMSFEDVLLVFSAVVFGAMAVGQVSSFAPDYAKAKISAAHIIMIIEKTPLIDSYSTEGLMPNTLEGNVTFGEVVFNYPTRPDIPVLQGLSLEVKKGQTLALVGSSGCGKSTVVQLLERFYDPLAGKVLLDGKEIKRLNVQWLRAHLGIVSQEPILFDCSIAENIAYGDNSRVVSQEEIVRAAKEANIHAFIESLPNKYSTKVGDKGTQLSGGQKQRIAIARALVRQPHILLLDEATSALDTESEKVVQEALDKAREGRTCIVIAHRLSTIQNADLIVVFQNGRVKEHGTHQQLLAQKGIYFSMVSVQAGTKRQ
Excerpt: Final organic concentration in the assay was 1%.

[1] = tested on: NCI-H1666 (BRAF G466V) cells; assay: Cellular phospho-ERK inhibition assay in NCI-H1666 cells; assay type: cell-based; settings: Homo sapiens, 1 hour treatment, read-out: IC50 NCI-H1666 pERK
Procedure: The compounds of Example 13, Example 14 and Example 126 were evaluated in a phospho-ERK assay in two mutant BRAF Class III cell lines: NCI-H1666 (BRAF^G466V) and WM3629 cells (BRAF^D594G/NRAS^G12D). NCI-H1666 cells were obtained from the American Type Culture Collection (ATCC, Rockville, MD) and WM3629 cells were obtained from Rockland Immunochemicals (Limerick, PA). Cells were maintained in RPMI growth medium containing 10% FBS.
Cells were harvested according to standard protocols, counted, and plated onto flat-bottom, 96-well tissue culture plates (Costar #3599) at 2.5×10^4 cells/well in 100 μL/well of growth medium containing 10% FBS. After an overnight incubation at 37° C. with 5% CO2 cells were treated for 1 hour at 37° C., 5% CO2 with inhibitors prepared as a 9-point, 1:3.33 fold dilution series with final compound concentrations ranging from 66 pM-10 μM and a constant DMSO concentration of 0.25%. Control wells contained either 0.25% DMSO alone (uninhibited control) or 10 μM binimetinib (complete inhibition control). The levels of phosphorylated ERK were determined using an In Cell Western protocol: following compound incubation, growth medium was discarded, and cells were fixed with 0.4% formaldehyde in PBS for 20 minutes at room temperature. Cells were permeabilized with 100% methanol for 10 minutes at room temperature. Plates were washed with PBS containing 0.05% Tween-20 and blocked for 1 hour at room temperature with LI-COR Blocking Buffer (LI-COR Biosciences; Cat. #927-40000). Plates were then incubated for 2 hours at room temperature with 50 μL of a 1:400 dilution of anti-phospho-ERK1/2 (Thr202/Tyr204) (Cell Signaling; Cat. #9101) and a 1:1000 dilution of anti-GAPDH (Millipore; Cat. #MAB374) in LI-COR blocking buffer containing 0.05% Tween-20. […] Plates were analyzed by reading on an Odyssey CLx infrared scanner. […]
[formula] • Where: • Xmax d Average Uninhibited Controls • Xmin Average Complete Inhibition Controls • IC50 values were then calculated using a 4-parameter fit in XLfit software and are shown in Table A2.

BCRP, sequence (Q9UNQ0 whole entry): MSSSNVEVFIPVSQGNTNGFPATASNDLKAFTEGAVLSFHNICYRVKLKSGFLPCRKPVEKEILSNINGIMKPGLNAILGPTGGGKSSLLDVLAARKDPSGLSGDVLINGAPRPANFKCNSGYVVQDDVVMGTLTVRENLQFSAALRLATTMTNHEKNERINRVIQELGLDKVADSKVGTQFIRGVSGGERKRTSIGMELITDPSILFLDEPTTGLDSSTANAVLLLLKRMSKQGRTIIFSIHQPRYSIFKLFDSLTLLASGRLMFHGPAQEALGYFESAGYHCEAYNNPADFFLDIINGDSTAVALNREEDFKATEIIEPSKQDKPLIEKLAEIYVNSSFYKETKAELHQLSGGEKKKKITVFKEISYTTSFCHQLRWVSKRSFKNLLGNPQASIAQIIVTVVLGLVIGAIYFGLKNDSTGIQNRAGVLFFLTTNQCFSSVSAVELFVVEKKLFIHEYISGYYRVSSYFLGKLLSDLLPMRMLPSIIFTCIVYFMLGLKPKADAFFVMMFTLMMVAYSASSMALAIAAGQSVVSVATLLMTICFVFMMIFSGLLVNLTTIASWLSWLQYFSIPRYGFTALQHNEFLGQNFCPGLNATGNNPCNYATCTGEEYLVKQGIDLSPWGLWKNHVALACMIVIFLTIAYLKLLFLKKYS

Row | efflux ratio at 2 h, 1 µM (BCRP) | IC50 (A375 cells) | efflux ratio at 2 h, 1 µM (P-gp (MDR1)) | IC50 [1] | Compound
1 | 1.8 | 6 nM | 1.5 | 15 nM | Cn1cnc2ccc(Nc3c(F)ccc(NS(=O)(=O)N4CC5CC4C5)c3Cl)c(F)c2c1=O [Example 13, N-(2-chloro-4-fluoro-3-((5-fluoro-3-methyl-4-oxo-3,4-dihydroquinazolin-6-yl)amino)phenyl)-2-azabicyclo[2.1.1]hexane-2-sulfonamide]
2 | 5.4 | 3 nM | 3.2 | 7.1 nM | Cn1cnc2ccc(Nc3c(F)ccc(NS(=O)(=O)N4CC[C@@H](F)C4)c3Cl)c(F)c2c1=O [Example 14, (R)-N-(2-chloro-4-fluoro-3-((5-fluoro-3-methyl-4-oxo-3,4-dihydroquinazolin-6-yl)amino)phenyl)-3-fluoropyrrolidine-1-sulfonamide]
